According to patent US10568868B2, “Methods and compositions for treating metabolic reprogramming disorders” (THE JOHNS HOPKINS UNIVERSITY, priority 2015, dated 2020):
Read-outs that look alike come from different tables or passages of the source.

Legend:
mouse model of asthma = experiment: Mouse model of asthma (House Dust Mite antigen sensitization and rechallenge); assay type: in vivo, mice; conditions: treated upon intratracheal rechallenge
Description: Mice were sensitized to House Dust Mite antigen (HDM) in the absence of drug. Upon intratracheal rechallenge the mice were treated with vehicle or 25.

Neuromyelitis Optica = experiment: Neuromyelitis optica model (adoptive transfer of auto-reactive T cells); design: species or system mice; conditions: mouse, in vivo
Description: Auto-reactive T cells were adoptively transferred into mice treated with PBS or 25 and mean paralysis scores were measured.

EAE = experiment: Multiple sclerosis model (EAE, C57BL/6+MOG35-55); assay type: in vivo, mice
Description: FIG. 21A and FIG. 21B show the targeting of glutamine metabolism in multiple sclerosis. Animals were immunized for EAE (C57BL/6+MOG35-55). Mice were treated with vehicle or 25 either q.d. from the day of immunization (day 0, left), or b.d. from the time of disease onset (EAE disease score≥1, right).

4T1-Luc tumor cells = experiment: 4T1-Luc mammary tumor model: myeloid cells, TAM and fibrocytes by flow cytometry; assay type: in vivo, BALB/c mice; conditions: 1 mg/kg daily from day 7 to day 17
Description: 4T1-Luc tumor cells (0.1 million) were injected into the mammary fat pads of 8-week-old female BALB/c mice. Mice received vehicle (PBS) or 1 mg/kg 25 daily from day 7 to day 17. Anti-PD1 antibody (5 mg/Kg) was administered i.p. on day 5, 8, 12 and 17. Percentages of myeloid-derived suppressor cell (MDSC) from circulating blood were monitored on day 6, 9 and 17 by flow cytometry with CD11b and Ly6C/Ly6G. Granulocytic MDSC (G-MDSC): CD11b+ Ly6g+ Ly6c low Monocytic MDSC (Mo-MDSC): CD11b+ Ly6G-Ly6c Hi.
4T1-Luc tumor cells (0.2 million) were injected into the mammary fat pads of 8-week-old female BALB/c mice. Mice received vehicle (PBS) or 1 mg/kg compound 25 daily from day 7 to day 17. Anti-PD1 antibody (5 mg/Kg) was administered on day 5, 8, 12 and 17. Tumors were evaluated for tumor infiltrating cells on day 21. Cells were seeded on plates and golgi plug 200 ul were added to inhibit cytokine secretion for overnight (no additional stimulation). Tumor associated macrophages markers: Live/CD45+/CD11b+/F4-80+/CD8− for flow cytometry analysis. Macrophages derived from tumor. The cells were incubated with Golgi plug o.n. w/o stim. TAM: Live/CD45+/CD11b+/F4-80+/CD8−.
4T1-Luc tumor cells (0.1 million) were injected into the mammary fat pads of 8-week-old female BALB/c mice. Mice received vehicle (PBS) or 1 mg/kg 25 daily from day 7 to day 17. Anti-PD1 antibody (5 mg/Kg) was administered on day 5, 8, 12 and 17. Tumors were evaluated for tumor infiltrating cells on day 21. Fibrocytes markers: CollagenI+CD11b+CD45+ live were used for flow cytometry analysis.

[1] = human microsomes
[2] = pig microsomes

Q: With `CCOC(=O)[C@H](CCC(=O)C=[N+]=[N-])NC(=O)[C@@H](N)CC(C)C` [Compound 25] as the molecule, how does the “levels of HDM specific IgE” value (mouse model of asthma) read?
A: Its value is “reduced”.

Q: And the lung pathology (mouse model of asthma)?
A: The lung pathology was “inhibited pathology”.

Q: What about the “recruitment/generation of Th2 cells” value (mouse model of asthma) of the same molecule?
A: The value was “inhibited”.

Q: And the mean paralysis scores (Neuromyelitis Optica)?
A: Its mean paralysis scores is “unexpected effectiveness”.

Q: And the “EAE disease, treatment” value (EAE; b.d. from the time of disease onset (EAE disease score≥1))?
A: The value was “unexpected effectiveness”.

Q: What about the “EAE disease, prevention” value (EAE; q.d. from the day of immunization (day 0)) of the same molecule?
A: Its value is “unexpected effectiveness”.

Q: And the “CD11b+ cells and G-MDSCs in circulating blood” value (4T1-Luc tumor cells; anti-PD1 antibody also given)?
A: Its value is “reduced CD11b+ cells and G-MDSCs”.

Q: What about the “TNF alpha in tumor associated macrophages” value (4T1-Luc tumor cells; tumors evaluated day 21) of the same molecule?
A: The value was “increased TNF alpha”.

Q: What about the tumor infiltrating fibrocytes (4T1-Luc tumor cells; tumors evaluated day 21) of the same molecule?
A: The tumor infiltrating fibrocytes was “reduced fibrocytes”.

Q: What about the liver microsomal stability [1] of the same molecule?
A: Its liver microsomal stability is “moderate-high stability”.

Q: And the liver microsomal stability [2]?
A: The liver microsomal stability was “moderate-high stability”.
